Results published in patent US20180117036A1, “ORAL PHARMACEUTICAL COMPOSITION FOR INCREASING HYPOXIA TOLERANCE” (CHANGZHOU HI-TECH DISTRICT MULTIPLE DIMENSION INDU, priority 2013, published 2018).
Structures can show the parent of a compound that is named as a salt.

System: hypoxic mice
Experiment: Survival time of mice under normal pressure in hypoxic condition (sealed wide mouth bottle with soda lime)
Type: in vivo
Details: intragastric; for Extended Survival Time: 7 days, vs control group; for Survival Time: once a day for 7 days, n = 10, x ± S
Procedure: Observation of influence of oral administration of different dosage combination of L-carnitine+trimetazidine to hypoxic mice in normal pressure trimetazidine hydrochloride: 0.15, 0.75, 1.5, 3, 6 and 9 mg/kg, equivalent to human daily dosage of 1, 5, 10, 20, 40 and 60 mg;
L-carnitine: 600 mg/kg, equivalent to human daily dosage of 4 g; 70 male mice are selected, each of a weight of 20±2 g. The mice are divided into […] randomly based on weight, 10 for each group, and are given oral administration at a dosage of 20 ml/kg, while the control group is given isovolumetric normal saline, both once a day for consecutive 7 days. In one hour after the final administration, each group of mice are placed in wide mouth bottles of a volume of 160 ml, into which 5 g of soda lime has been pre-added. One bottle contains one mouse and its cap is sealed with Vaseline. Taking death of mice as index, putting down the survival time of mice and taking a 20% or more extension of survival time as significant effect. Please refer to table 1 for the results.
Comparison of L-carnitine 600 mg/kg+trimetazidine hydrochloride 6 mg/kg and separate intragastric administration on mice in hypoxia under atmospheric pressure 40 male mice are selected, each of a weight of 20±2 g. The mice are divided into 4 groups randomly based on weight, 10 for each group, and are given intragastric administration at a dosage of 20 ml/kg, while the control group is given isovolumetric normal saline, both once a day for consecutive 7 days. In one hour after the final administration, each group of mice are placed in wide mouth bottles of a volume of 160 ml, into which 5 g of soda lime has been pre-added. One bottle contains one mouse and its cap is sealed with Vaseline. Taking death of mice as index and putting down the survival time of mice. Please refer to table 2 for the results.

[1] = trimetazidine hydrochloride 6 mg/kg alone

Row | Compound | Extended Survival Time (L-carnitine 600 mg/kg alone) [%] | Survival Time (L-carnitine 600 mg/kg alone) [min] | Extended Survival Time [1] [%] | Survival Time [1] [min]
1 | C[N+](C)(C)C[C@H](O)CC(=O)[O-] [L-carnitine] | 33.0 | 28.6 ± 4.8 | – | –
2 | COc1ccc(CN2CCNCC2)c(OC)c1OC [trimetazidine hydrochloride] | – | – | 20.9 | 26.0 ± 5.2
